Where “and” joins values, the source holds several entries; their conditions need not be identical. Identical values can stand only once. Like-named read-outs stand apart in the source and are kept apart here.
Experiments:
NRF2 = test: Western blot for NRF2 (total and nuclear extracts); type: cell-based, human; settings: 10 μM, 24 h
HT-22 cell line = test: protection against Aβ1–42, cell membrane damage (ToxiLight); type: cell-based, mouse; settings: 10 μM pretreatment 1 h, Aβ1–42 35 μM 16 h
Method: Cells were cultured in Dulbecco’s modified Eagle’s Medium-high glucose (DMEM, GlutaMAX ThermoFisher) supplemented with 10% inactivated fetal bovine serum heat (Thermo Fisher), 100 IU/mL penicillin (Merck), and 100 μg/mL streptomycin (Merck). Cells were cultured in flasks (area 175 cm^2, Nunc) and incubated at 37 °C, 5% CO2. To measure the neuroprotective effect against Aβ1–42, cells were placed in a 96-well culture plate (5 × 10^3 cells per well, Falcon). To measure the toxicity of tested compounds, cells were placed in a 96-well culture plate (5 × 10^3 and 2 × 10^4 cells per well, Falcon).
Stock solutions were prepared at a concentration of 10 mM for the tested compounds. A minimum of 1 mg of each tested compound was weighed and dissolved in an appropriate volume of dimethyl sulfoxide (DMSO). Serial dilutions were prepared in DMSO, and then, the diluted compounds were transferred to phosphate-buffered saline (PBS), mixed, and put into a medium with adherent cells. Before the assays, eventual precipitation or opalescence was checked. […]
Then, 20 μL of adenylate kinase detection reagent was added. The luminescence was measured after 10 min of incubation with a plate reader, POLARstar Omega (BMG Labtech). The results are expressed as a percentage of the control (Aβ1–42), corresponding to the percentage of dead cells concerning the control sample.

[1] = tissue distribution pharmacokinetics after single i.p. administration; type: in vivo, rat; parameters: Cmax: unit: ng/g
Method: Standard laboratory food (LSM-B) and filtered water as well as environment enrichment were freely available. Animals were randomly divided into treatment groups using a computer-based random order generator. All of the experiments were performed by two observers unaware of the treatment applied between 9:00 and 14:00 on separate groups of animals. Rats were injected with the investigated compounds once (in pharmacokinetic studies) and for 21 days (in behavioral studies), and afterward, behavioral tests were conducted and tissue collection was done, as required. For pharmacokinetic studies, animals were fasted prior to dosing by withholding food but not water overnight. After dosing, the food was withheld for an additional 8 h. All animals were used only once. Animals were handled every day and weighed every other day in the chronic part of the experiment. Procedures involving animals and their care were conducted in accordance with current European Community and Polish legislations on animal experimentation. Additionally, all efforts were made to minimize animals' suffering and to use only the number of animals necessary to produce reliable scientific data. The experimental protocols and procedures described were approved by the I Local Ethics Commission in Cracow (nos 309/2019 and 765/2023) and complied with the European Communities Council Directive of 24 November 24, 1986 (86/609/EEC) and were in accordance with the 1996 NIH Guide for the Care and Use of Laboratory Animals. The research program complies with the commonly accepted '3Rs' (replacement and reduction of animals, refinement of experimental conditions, and procedures to minimize the harm to animals). […] Moreover, five tissues (i.e., brain, heart, lungs, kidneys, and liver) were harvested and rinsed with cold saline. Blood was allowed to clot at room temperature for 15-20 min and then centrifuged (3000 rpm for 10 min). The obtained serum and tissues were stored at -80 °C until analysis. […] HPLC analysis with UV detection at 221 nm was performed at a 1 mL/min flow rate, and the column temperature was 38 °C. Before analysis, tissue samples were thawed, weighed (200-250 mg), and placed in 5 mL plastic tubes with four volumes (w/v) of PBS (pH 7.4) and homogenized individually using a […]-1 homogenizer (ART Prozess & Labortechnik GmbH & Co., Germany). […] The samples were alkalized with 50 μL of 4 M sodium hydroxide solution, vortex-mixed, and extracted with 1 mL of ethyl acetate/hexane (30/70, v/v) mixture on a shaker (VXR Vibrax, IKA, Germany) for 20 min. […] Then, the samples were shaken and centrifuged again. Finally, 60-90 μL of each acidic layer was injected into the HPLC system. […] The interday and intraday precision and accuracy of quality control samples evaluated in the serum and tissue homogenates were within 15%. […] The area under the serum concentration-time curve from time zero to time t (AUC0-t), where t is the time of the last measurable sample, was calculated according to the linear trapezoidal rule. The AUC from time zero to infinity (AUC0-∞) was estimated as AUC0-t + Ct/λz, where Ct was the serum concentration of the last measurable sample. The clearance (CL/F) was calculated as D/AUC0-∞, and the volume of distribution based on the terminal phase (Vz/F) was estimated as D/(λz·AUC0-∞), where F is the bioavailability of intraperitoneal administration. The MRT is calculated to be […], where AMUC0-∞ is the area under the first moment curve from the time of dosing to infinity. The peak serum concentration (Cmax) and the time to reach Cmax (Tmax) were read directly from the observations. […] Data were presented as mean ± SD.

Structure (SMILES): CN1CCN(c2nc(N)nc(C(C)(C)Sc3ccc4ccccc4c3)n2)CC1 [WA-22, 4-(4-methylpiperazin-1-yl)-6-(2-(naphthalen-2-ylthio)propan-2-yl)-1,3,5-triazin-2-amine]
- NRF2 protein amount (total extract) (NRF2; GAPDH loading control): protein amount was not modulated
- NRF2 translocation from cytoplasm to nucleus (NRF2; nuclear extracts, H3 loading control): effectively induce a shuffling of this protein inside the nucleus
- protection of cell integrity against membrane destruction caused by Aβ1–42 (HT-22 cell line): neuroprotective activities
- time after administration at which still detected in all analyzed rat organs ([1]; 1 mg/kg i.p.): 240 min
- AUC0–t ([1]; brain, 0.3 mg/kg i.p.): 1575.82 ± 182.54 ng·min/g
- t0.5λz ([1]; brain, 0.3 mg/kg i.p.): 48.35 ± 4.46 min
- Tmax ([1]; brain, 0.3 mg/kg i.p., 0.3 mg/kg): 11.67 ± 5.77 min
- Cmax ([1]; brain, 1.0 mg/kg i.p., 1 mg/kg): 114.79 ± 39.16 ng/g
- Tmax ([1]; brain, 1.0 mg/kg i.p., 1 mg/kg): 8.33 ± 5.77 min
- t0.5λz ([1]; brain, 1.0 mg/kg i.p., 1 mg/kg): 110.31 min and 110.31 ± 24.35 min
- AUC0–t ([1]; heart, 0.3 mg/kg i.p.): 1670.68 ± 385.10 ng·min/g
- t0.5λz ([1]; heart, 0.3 mg/kg i.p.): 84.99 ± 19.47 min
- AUC0–t ([1]; heart, 1.0 mg/kg i.p.): 6013.14 ± 2336.18 ng·min/g
- t0.5λz ([1]; heart, 1.0 mg/kg i.p.): 122.04 ± 18.30 min
- fraction cleared in rat tissues and serum at 120 min ([1]; i.p. administration): 80–95%
- AUC0–t ([1]; kidneys, 0.3 mg/kg i.p.): 3276.54 ± 1455.54 ng·min/g
- t0.5λz ([1]; kidneys, 0.3 mg/kg i.p.): 67.32 ± 12.95 min
- AUC0–t ([1]; kidneys, 1.0 mg/kg i.p.): 12540.07 ± 4826.76 ng·min/g
- t0.5λz ([1]; kidneys, 1.0 mg/kg i.p., 1 mg/kg): 122 min and 121.93 ± 44.52 min
- AUC0–t ([1]; liver, 0.3 mg/kg i.p.): 3993.81 ± 1308.63 ng·min/g
- t0.5λz ([1]; liver, 0.3 mg/kg i.p.): 48.07 ± 6.68 min
- AUC0–t ([1]; liver, 1.0 mg/kg i.p.): 14056.00 ± 8075.06 ng·min/g
- t0.5λz ([1]; liver, 1.0 mg/kg i.p., 1 mg/kg): 109 min and 108.96 ± 17.84 min
- AUC0–t ([1]; lungs, 0.3 mg/kg i.p.): 9320.95 ± 1906.43 ng·min/g
- t0.5λz ([1]; lungs, 0.3 mg/kg i.p.): 105.43 ± 5.42 min
- AUC0–t ([1]; lungs, 1.0 mg/kg i.p.): 33528.62 ± 5691.73 ng·min/g
- t0.5λz ([1]; lungs, 1.0 mg/kg i.p.): 96.48 ± 13.43 min
- Kp ([1]; male, Wistar, rat, brain (relative to serum), ip, i.p. administration, read-out: brain-to-serum AUC ratio): ~2.17
- Cmax ([1]; male, Wistar, rat, brain, ip, 0.3 mg/kg, brain, 0.3 mg/kg i.p., read-out: Cmax): 30.7 ± 3.28 ng/g
- Tmax ([1]; male, Wistar, rat, brain, ip, 0.3 mg/kg, brain, 0.3 mg/kg i.p., read-out: Tmax (converted)): 12 min
- Cmax ([1]; male, Wistar, rat, brain, ip, 1 mg/kg, brain, 1.0 mg/kg i.p., read-out: Cmax): 115 ± 39.2 ng/g
- Tmax ([1]; male, Wistar, rat, brain, ip, 1 mg/kg, brain, 1.0 mg/kg i.p., read-out: Tmax (converted)): 8 min
- Kp ([1]; male, Wistar, rat, brain/serum, ip, 0.3 mg/kg, brain, 0.3 mg/kg i.p., read-out: AUC ratio (tissue-to-serum AUC0–t)): 1.89 ± 0.34
- Kp ([1]; male, Wistar, rat, brain/serum, ip, 1 mg/kg, brain, 1.0 mg/kg i.p., read-out: AUC ratio (tissue-to-serum AUC0–t)): 2.46 ± 1.32
- Kp ([1]; male, Wistar, rat, brain/serum, ip, 1 mg/kg, brain-to-serum, 1 mg/kg i.p., read-out: AUC0–∞ (ng·h/g)/AUC0–∞ (ng·h/mL)): 2.14 ± 1.18
- Kp ([1]; male, Wistar, rat, brain/serum, ip, 1 mg/kg, brain-to-serum, 1 mg/kg i.p., read-out: Cmax (ng/g)/Cmax (ng/mL)): 1.99 ± 1.61
- Cmax ([1]; male, Wistar, rat, heart, ip, 0.3 mg/kg, heart, 0.3 mg/kg i.p., read-out: Cmax): 37.5 ± 6.65 ng/g
- Tmax ([1]; male, Wistar, rat, heart, ip, 0.3 mg/kg, heart, 0.3 mg/kg i.p., read-out: Tmax (converted)): 5 min
- Cmax ([1]; male, Wistar, rat, heart, ip, 1 mg/kg, heart, 1.0 mg/kg i.p., read-out: Cmax): 172 ± 74.7 ng/g

Source: publication PMC11926880, “Procognitive Potential of Neuroprotective Triazine 5-HT6 Receptor Antagonists Tested on Chronic Activity In Vivo in Rats: Computer-Aided Insight into the Role of Chalcogen-Differences on the Pharmacological Profile” (ACS Chemical Neuroscience, 2025)
